Experimental data published in US10669235B2, “Indole derivatives and their use as protein kinase inhibitors” (RESPIVERT LIMITED, priority 2016, dated 2020).
Structures can show the parent of a compound that is named as a salt. Where two headings read alike, the source gives them in different places.

What was measured:
PDGFRβ [1] = target: T1, PDGFRβ (Homo sapiens (Human), UniProt P09619); experiment: PDGFRβ enzyme inhibition (ADP-Glo assay); type: biochemical
PDGFRβ [2] = target: T1, PDGFRβ; experiment: PDGF-BB induced phosphorylation of PDGFRβ in fibroblasts (MRC5, HTRF); type: cell-based; conditions: MRC5 cells, PDGFBB stimulation; read-out: PDGFBB-induced PDGFRβ phosphorylation in MRC5 cells (IC50)
MRC5 cells = experiment: Cell viability assay in MRC5 cells (MTT)
PAMPA permeability assay = type: in vitro ADME; conditions: pH 7, PAMPA; for Papp at 5 hr, 10 μM: pH 7, 10 μM
[3] = Pharmacokinetic measurements in rats (i.v., i.t., oral); type: in vivo; conditions: rat; for concentration at 0.1 h: read-out: lung concentration (nM) at time 0.1 h; for concentration at 1.5 h: read-out: lung concentration (nM) at time 1.5 h; for concentration at 6 h: read-out: lung concentration (nM) at time 6 h; for concentration at 24 h: read-out: lung concentration (nM) at time 24 h
[4] = i.t. dose 0.1 (nintedanib 0.42)
[5] = i.t. dose 0.1 (nintedanib 0.42), 6 h
[6] = i.t. dose 0.1 (nintedanib 0.42), 24 h
[7] = i.v. dose 0.1 (nintedanib 0.42)
[8] = i.v. dose 0.1 (nintedanib 0.42), 6 h
[9] = i.v. dose 0.1 (nintedanib 0.42), 24 h
[10] = mean, n = 2 (nintedanib n = 34)

T1 sequence (P09619 33-1106): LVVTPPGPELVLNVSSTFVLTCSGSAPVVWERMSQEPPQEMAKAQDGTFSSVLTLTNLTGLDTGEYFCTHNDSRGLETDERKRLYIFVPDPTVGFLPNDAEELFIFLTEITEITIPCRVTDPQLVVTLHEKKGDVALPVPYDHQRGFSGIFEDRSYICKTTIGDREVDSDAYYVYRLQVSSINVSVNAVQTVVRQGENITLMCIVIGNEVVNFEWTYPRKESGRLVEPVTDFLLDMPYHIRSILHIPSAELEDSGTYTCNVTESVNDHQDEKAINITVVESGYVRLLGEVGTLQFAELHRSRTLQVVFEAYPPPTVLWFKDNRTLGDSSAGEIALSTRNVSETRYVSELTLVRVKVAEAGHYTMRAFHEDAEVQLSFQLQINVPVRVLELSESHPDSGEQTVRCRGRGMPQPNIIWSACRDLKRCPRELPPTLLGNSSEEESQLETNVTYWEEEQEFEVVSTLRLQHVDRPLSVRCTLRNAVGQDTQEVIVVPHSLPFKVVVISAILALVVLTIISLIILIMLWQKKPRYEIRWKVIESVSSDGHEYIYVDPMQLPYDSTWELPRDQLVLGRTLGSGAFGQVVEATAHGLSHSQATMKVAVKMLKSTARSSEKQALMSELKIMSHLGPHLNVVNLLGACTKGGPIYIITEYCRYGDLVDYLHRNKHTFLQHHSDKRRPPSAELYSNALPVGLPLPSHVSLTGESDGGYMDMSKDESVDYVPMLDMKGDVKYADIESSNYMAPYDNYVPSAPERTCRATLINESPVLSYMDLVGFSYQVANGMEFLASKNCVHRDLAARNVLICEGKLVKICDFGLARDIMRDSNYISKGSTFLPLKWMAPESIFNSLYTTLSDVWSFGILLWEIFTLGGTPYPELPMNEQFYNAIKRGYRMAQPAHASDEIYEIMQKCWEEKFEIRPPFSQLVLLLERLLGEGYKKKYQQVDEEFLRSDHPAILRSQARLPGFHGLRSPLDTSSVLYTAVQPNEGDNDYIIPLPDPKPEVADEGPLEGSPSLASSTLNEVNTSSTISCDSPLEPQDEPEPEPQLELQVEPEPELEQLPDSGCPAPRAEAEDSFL

SMILES | IC50 (PDGFRβ [2]) [µM] | Cell viability at 100 nM (%) (MRC5 cells) | Cell viability at 300 nM (%) (MRC5 cells) | Cell viability at 1000 nM (%) (MRC5 cells) | recovery at 5 hr, 10 μM (PAMPA permeability assay) [%] | Papp at 5 hr, 10 μM (PAMPA permeability assay) [×10⁻⁶ cm/s] | Lung conc i.t./i.v. Ratio at time 0.1 h [3] | Lung conc i.t./i.v. Ratio at time 1.5 h [3] | Lung conc i.t./i.v. Ratio at time 6 h ([3]; 6 h) | Lung conc i.t./i.v. Ratio at time 24 h ([3]; 24 h) | BAL % administered dose at time 0.1 h [3, 4] [%] | lung/plasma conc ratio at time 0.1 h [3, 4] | concentration at 0.1 h [3, 4] [nM] | BAL % administered dose at time 1.5 h [3, 4] [%] | lung/plasma conc ratio at time 1.5 h [3, 4] | concentration at 1.5 h [3, 4] [nM] | BAL % administered dose at time 6 h [3, 5] [%] | lung/plasma conc ratio at time 6 h [3, 5] | concentration at 6 h [3, 5] [nM] | Ki (PDGFRβ [1]; [10]) [µM] | other results
COC(=O)c1cc2c(cc1C)/C(=C(/Nc1ccc(C(=O)NCCN(C)C)cc1)c1ccccc1)C(=O)N2 [Example 2, (Z)-Methyl 3-(((4-((2-(dimethylamino)ethyl)carbamoyl)phenyl)amino)(phenyl)methylene)-5-methyl-2-oxoindoline-6-carboxylate, formate] | 0.0367 | 94 | 91 | 68.5 | – | – | – | – | – | – | – | – | – | – | – | – | – | – | – | – | Ki (PDGFRβ [1]): 0.0111 µM
COC(=O)c1cc2c(cc1C)/C(=C(/Nc1ccc(C(=O)NCCN3CCC(N(C)C)CC3)cc1)c1ccccc1)C(=O)N2 [Example 6, (Z)-Methyl 3-(((4-((2-(4-(dimethylamino)piperidin-1-yl)ethyl)carbamoyl)phenyl)amino) (phenyl)methylene)-5-methyl-2-oxoindoline-6-carboxylate, formate] | 0.0132 | 102.3 | 98.9 | 91.2 | 56.5 | 0.012 | 9.8 | 8.0 | 8.3 | 7.7 | 14 | 472 | 9826 | 0.9 | >4452 | 7568 | 1.1 | >4597 | 7815 | – | BAL % administered dose at time 24 h [3, 6]: 0.9%; lung/plasma conc ratio at time 24 h [3, 6]: >3787; concentration at 24 h [3, 6]: 6438 nM; BAL % administered dose at time 0.1 h [3, 7]: BQL; lung/plasma ratio at time 0.1 h [3, 7]: 77; concentration at 0.1 h [3, 7]: 1002 nM; BAL % administered dose at time 1.5 h [3, 7]: BQL; lung/plasma ratio at time 1.5 h [3, 7]: >558; concentration at 1.5 h [3, 7]: 949 nM; BAL % administered dose at time 6 h [3, 8]: BQL; lung/plasma ratio at time 6 h [3, 8]: >552; concentration at 6 h [3, 8]: 939 nM; BAL % administered dose at time 24 h [3, 9]: BQL; lung/plasma ratio at time 24 h [3, 9]: >492; concentration at 24 h [3, 9]: 837 nM
COC(=O)c1cc2c(cc1C)/C(=C(/Nc1ccc(C(=O)NCC(=O)N3CCN(CCO)CC3)cc1)c1ccccc1)C(=O)N2 [Example 7, (Z)-Methyl 3-(((4-((2-(4-(2-hydroxyethyl)piperazin-1-yl)-2-oxoethyl)carbamoyl)phenyl)amino) (phenyl)methylene)-5-methyl-2-oxoindoline-6-carboxylate, formate] | 0.00604 | 102.9 | 97.2 | 67.5 | 56.3 | 0.00653 | 15.5 | 20.1 | >42 | >10 | 3.5 | 39 | 1532 | 0.6 | >265 | 886 | 0.1 | >35 | 116 | – | MRT ([3]; male, CD, plasma, iv): 42 min; clearance ([3]; male, CD, plasma, iv): 75 mL/min/kg; half-life ([3]; male, CD, plasma, iv): 36 min; Vd ([3]; male, CD, plasma, iv, read-out: Vss): 3.4 L/kg; i.t. BAV (%) [3, 4]: 35%; BAL % administered dose at time 24 h [3, 6]: BQL; lung/plasma conc ratio at time 24 h [3, 6]: >8; concentration at 24 h [3, 6]: 27 nM; BAL % administered dose at time 0.1 h [3, 7]: 0.06%; lung/plasma ratio at time 0.1 h [3, 7]: 2; concentration at 0.1 h [3, 7]: 99 nM; BAL % administered dose at time 1.5 h [3, 7]: BQL; lung/plasma ratio at time 1.5 h [3, 7]: 12; concentration at 1.5 h [3, 7]: 44 nM; BAL % administered dose at time 6 h [3, 8]: BQL; lung concentration (nM) at time 6 h [3, 8]: BQL; BAL % administered dose at time 24 h [3, 9]: BQL; lung concentration (nM) at time 24 h [3, 9]: BQL; Oral BAV (%) ([3]; oral dose 3 mg/kg): <7%
COC(=O)c1cc2c(cc1C)/C(=C(/Nc1cccc(C(=O)N(C)CCN(C)C)c1)c1ccccc1)C(=O)N2 [Example 16, (Z)-Methyl 3-(((3-((2-(dimethylamino)ethyl)(methyl)carbamoyl)phenyl)amino)(phenyl)methylene)-5-methyl-2-oxoindoline-6-carboxylate] | – | 103.2 | 104.3 | 70.6 | – | – | – | – | – | – | – | – | – | – | – | – | – | – | – | 0.013 | –
COC(=O)c1cc2c(cc1C)/C(=C(/Nc1ccc(C(=O)NCCN3CCC(F)(F)CC3)cc1)c1ccccc1)C(=O)N2 [Example 23, (Z)-Methyl 3-(((4-((2-(4,4-difluoropiperidin-1-yl)ethyl)carbamoyl)phenyl)amino)(phenyl)methylene)-5-methyl-2-oxoindoline-6-carboxylate] | 0.0226 | 90.7 | 100.5 | 62.1 | – | – | – | – | – | – | – | – | – | – | – | – | – | – | – | 0.0846 | –
COC(=O)c1cc2c(cc1C)/C(=C(/Nc1ccc(C(=O)NCCN3CCN(C(C)=O)CC3)cc1)c1ccccc1)C(=O)N2 [Example 24, (Z)-Methyl 3-(((4-((2-(4-acetylpiperazin-1-yl)ethyl)carbamoyl)phenyl)amino)(phenyl)methylene)-5-methyl-2-oxoindoline-6-carboxylate] | 0.0123 | 125.2 | 74.4 | 45.9 | – | – | – | – | – | – | – | – | – | – | – | – | – | – | – | 0.0127 | –
